Measured values from publication PMC6501426 (Clinical Epigenetics, 2019).

What was measured:
[1] = system: methylated CMV promoter-driven luciferase reporter in KG-1 cells; test: CMV-luc assay in KG-1 cells; format: cell-based, human; conditions: KG-1 CMV-luc
Description: The assay was carried out as described by Rilova et al.. The KG-1 cell line was stably transfected with the luciferase firefly (Luc^+ from pGL3 by Promega, Madison, WI, USA) reporter gene under the control of a methylated CMV promoter (from pEGFP-N1 by Clontech) and selected for the maintenance of the methylation of CMV and luciferase expression silencing (KG-1 CMV-luc). The stably integrated KG-1 CMV-luc cells are cultivated in RPMI-1640 medium (Lonza, Strasbourg, France), supplemented with 10% FCS (Lonza, Strasbourg, France) and 0.5 mg/mL of geneticin (Sigma-Aldrich, Saint-Quentin Fallavier, France), under 5% CO2, at 37 °C and seeded at 20,000 cells per well in 96-well plates. After 5 or 24 h of incubation in the presence of compounds or the solvent DMSO, the induction of the promoter is measured by quantification of luciferase with the Brite-lite assay system (PerkinElmer, Villebon-sur-Yvette, France) according to the manufacturer’s protocol. The luminescence is measured on an EnVision™ Multilabel Plate Reader (PerkinElmer, Villebon-sur-Yvette, France), and the data are expressed as fold induction compared to DMSO control. The mean of 2–4 experiments and its standard error are reported.
Afterwards, MC3353 was tested in KG-1 leukemia cells for its ability to reactivate gene expression in a stably integrated luciferase reporter construction under the control of a CMV promoter inhibited by DNA methylation (CMV-luc assay). After 5 or 24 h of incubation in the presence of drugs at the indicated concentrations, the luciferase signal was measured and normalized to the value of the non-treated cells (Table 2). Since the CMV-luc assay is highly compromised when the tested compounds induce cell death, the cytotoxicity of MC3353 against KG-1 cells at 5 and 24 h was determined in parallel. MC3353 was highly toxic for KG-1 cells after 24 h of treatment starting from a concentration of 1 μM (Additional file 1: Table S1 and indicated in stars in Table 2).

[2] = system: KG-1; test: Cell viability, trypan blue exclusion; format: cell-based, human
Description: (§1) U-937 (acute myeloid leukemia), RAJI (Burkitt’s lymphoma), PC-3 (prostate cancer), and MDA-MB-231 (breast cancer) cell lines were obtained from the Deutsche Sammlung für Mikroorganismen and Zellkulturen (DSZM, Braunschweig, Germany) and were cultured in RPMI 1640 (Lonza, Verviers, Belgium) complemented with 10% FBS (Lonza, Verviers, Belgium) and 1% antibiotic-antimycotic (Lonza). RPMI1788 (normal B lymphocytes) and KG-1 (acute myeloid leukemia) cell lines were obtained from the American Type Culture Collection (ATCC) and were maintained in RPMI 1640 complemented with 20% FBS and IMDM complemented with 10% FBS, respectively. Cell lines were treated with compounds at the indicated concentrations in the exponential growth phase.
(§2) Proliferation and viability of U-937, KG-1, RAJI, PC-3, MDA-MB-231, RPMI1788, PBMCs, and PHA_PBMCs were assessed by trypan blue exclusion assays at the indicated time points. Nuclear morphology changes associated with apoptosis and necrosis were evaluated by fluorescence microscopy after Hoechst and propidium iodide (PI) staining as previously described.
(§3) IC50 values of compounds against cellular viability were determined by using nonlinear regression fitting curves with GraphPad Prism 8 or CalcuSyn software The t test used for statistical analyses was performed with GraphPad Prism 8. All the tests were one-tailed, and a p value < 0.05 was considered statistically significant.

[3] = system: MDA-MB-231; test: Cell viability, trypan blue exclusion; format: cell-based, human
Description: as §1, §2, §3

[4] = system: RAJI; test: Cell viability, trypan blue exclusion; format: cell-based, human
Description: as §1, §2, §3

[5] = system: RPMI1788 cells; test: Nuclear morphology analysis (Hoechst/PI); format: cell-based; conditions: 72 h; starting from 5 μM; normal cells
Description: as §2
Fig. 6 Nuclear morphology analysis in U-937, RAJI, KG-1, and RPMI1788 cells. Cells were treated with increasing doses of MC3353. Upper panels—after 72 h of treatment, the nuclear morphology was analyzed by fluorescence microscopy after Hoechst and PI staining. Pictures are representative of three independent experiments. Lower panels—the results of cell counting are represented as the mean (± SD) of three independent experiments

[6] = system: ALP expression in Saos-2 cells; test: Saos-2 osteoblast differentiation, RT-qPCR; format: cell-based, human; conditions: 0.5 and 1 μM, only at the most extended exposure (day 21)
Description: (§4) Four days after seeding, Saos-2 cells were exposed to specific osteogenic medium (IMDM supplemented with 2% FBS, 5 mM β-glycerophosphate, and 50 μg/mL ascorbic acid, Sigma-Aldrich, Milan, Italy) without (control) or with MC3353 (0.5–1 μM) or DAC (0.1–0.5 μM) and maintained in differentiating conditions for up to 21 days. The medium was renewed every 4 days, and the cells were harvested at various time points to collect total RNA and verify bone mineralization. Specific osteoblastic markers were evaluated by quantitative real-time PCR (RT-qPCR) as previously described. The primers or assays (Applied Biosystems, Foster City, CA, USA) used are as follows: GAPDH (forward: 5′-[…]-3′, reverse: 5′-[…]-3′ and probe: 5′-[…]-3′), OCN (forward: 5′-[…]-3′, reverse: 5′-[…]-3′), ALP (Hs01029144_m1), and COL1A2 (Hs01028970_m1). Amplification reactions were performed using a ViiA7™ Real-Time PCR System (Life Technologies, Carlsbad, CA, USA). To visualize bone mineralization (osteoblastic differentiation) after 7–21 days of MC3353 or DAC treatment, the plates were stained with 40 mM Alizarin red stain (ARS, Sigma-Aldrich, Milan, Italy). ARS staining was visualized with an ECLIPSE 90i microscope (Nikon, Minato, Tokyo, Japan) equipped with Plan fluor 10× NA 0.3. Images were acquired with an autocapture setting using a digital color camera (Nikon DS5 MC) and NIS-Elements AR3.10 software (Nikon, Minato, Tokyo, Japan).

[7] = system: COL1A2 expression in Saos-2 cells; test: Saos-2 osteoblast differentiation, RT-qPCR; format: cell-based, human; conditions: 0.5 and 1 μM, along 3 weeks, osteogenic medium
Description: as §4

[8] = system: OCN expression in Saos-2 cells; test: Saos-2 osteoblast differentiation, RT-qPCR; format: cell-based, human; conditions: 0.5 and 1 μM, along 3 weeks, osteogenic medium
Description: as §4

[9] = system: KG-1, U-937, RAJI, PC-3, MDA-MB-231 cancer cells; test: Viability in panel of cancer cells; format: cell-based; conditions: Homo sapiens, 48 h of treatment, range over KG-1, U-937, RAJI, read-out: IC50 values, proliferation/viability in cancer cell panel
Description: as §2, §3

In the case of O=C(Nc1ccc(NC(=O)c2ccc(Nc3ccnc4ccccc34)cc2)cc1)OCc1ccccc1 [MC3353, Benzyl (4-(4-(quinolin-4-ylamino)benzamido)phenyl)carbamate], the “Luciferase expression (fold ± SD)” value ([1]; 0.1 μM, 5 h) is reported as 1.0 ± 0.05 fold, the “Luciferase expression (fold ± SD)” value ([1]; 0.1 μM, 24 h) is reported as 1.1 ± 0.1 fold and the “Luciferase expression (fold ± SD)” value ([1]; 1 μM, 5 h) is reported as 5.8 ± 0.9 fold. For the same compound, the “Luciferase expression (fold ± SD)” value ([1]; 1 μM, 24 h) was 4.4 ± 3.5 fold, the “Luciferase expression (fold ± SD)” value ([1]; 5 μM, 5 h) was 6.7 ± 0.8 fold and the “Selectivity index (IC50 PBMCs/IC50 cell line), KG-1” value ([2]; 48 h) was “(26.2)”. The “Selectivity index (IC50 PHA_PBMCs/IC50 cell line), KG-1” value ([2]; 48 h) was “(13.5)”, the “Selectivity index (IC50 RPMI1788/IC50 cell line), KG-1” value ([2]; 48 h) was “(7.2)” and the IC50 ([2]; Homo sapiens, KG-1, 48 h of treatment, read-out: IC50 ± SD, cell viability, KG-1) was 300 nM. The “Selectivity index (IC50 PBMCs/IC50 cell line), MDA-MB-231” value ([3]; 48 h) was “(9.7)”, the “Selectivity index (IC50 PHA_PBMCs/IC50 cell line), MDA-MB-231” value ([3]; 48 h) was “(5.0)” and the “Selectivity index (IC50 RPMI1788/IC50 cell line), MDA-MB-231” value ([3]; 48 h) was “(2.6)”. The IC50 ([3]; Homo sapiens, MDA-MB-231, 48 h of treatment, read-out: IC50 ± SD, cell viability, MDA-MB-231) was 900 ± 700 nM, the “Selectivity index (IC50 PBMCs/IC50 cell line), RAJI” value ([4]; 48 h) was “(23.1)” and the “Selectivity index (IC50 PHA_PBMCs/IC50 cell line), RAJI” value ([4]; 48 h) was “(11.9)”. The “Selectivity index (IC50 RPMI1788/IC50 cell line), RAJI” value ([4]; 48 h) was “(6.3)”, the IC50 ([4]; Homo sapiens, Raji, 48 h of treatment, read-out: IC50 ± SD, cell viability, RAJI) was 400 nM and the “cell death modality, RPMI1788” value [5] was “mixed type of cell death induction, mainly necrosis”. The “ALP expression, Saos-2” value [6] was “weak induction of ALP expression”, the “COL1A2 expression, Saos-2” value [7] was “dose-dependently decreased COL1A2 expression” and the “OCN expression, Saos-2” value [8] was “increased OCN expression”. The IC50 [9] was 300 to 900 nM.
